Data on eight molecules can be found in patent US10357477B2, “Anticancer compounds” (REGENTS OF THE UNIVERSITY OF MINNESOTA, priority 2016, dated 2019).

Converted amounts (≈) assume the structure as drawn.

Data set [1] relates to MIA PaCa-2 cells. Description: Cell viability assay (MTT) in MIA PaCa-2 cells. In kind it is cell-based. Particulars: Homo sapiens, antiproliferative activity, 72 h. Put shortly: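 MIA PaCa-2 cells exposed 72 h at 37° C to 2-fold serial compound dilutions from 100 μM final, 0.5% DMSO, in triplicate. Viability by MTT (3 h), formazan read at 570 nm minus 650 nm; EC50 from curve fit.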

The test system of data set [2] is MCF10A cells (normal human mammary cells). Description: Cell viability assay (MTT) in MCF10A cells. In kind it is cell-based. The note with it: MCF-10A, 72 h. As to the method: MCF10A cells are maintained in minimum essential medium (MEM) (Invitrogen 11095) supplemented with 10% FBS (Invitrogen 16000), 1% 10× non-essential amino acids (NEAA) (Invitrogen 11140), 1% Penicillin/Streptomycin (Invitrogen 15140), 1% GlutaMAX (Invitrogen 35050-061), 20 ng/mL EGF, […] hydrocortisone, 100 ng/mL cholera toxin, 10 μg/mL insulin.
Cells were plated in 96-well plates at 25×10^4 cells/ml. After 24 hours, compounds were added at 9, 3× dilutions in triplicate from 100 uM final concentration in the appropriate growth media. Plates were incubated for 72 hours at 37° C. in a 5% CO2/95% air humidified atmosphere after which time the media was removed and MTT was added in RPMI phenol red free media. The MTT was removed after 3 hours and formazan crystals were solubilized with 200 μL of isopropanol. Plates were read on a Molecular Devices SpectraMax i3 spectrophotometer at 570 nm for formazan and 690 nm for background subtraction. EC50 values were calculated by fitting the data in GraphPad Prism software.

The nature of data set [3]: Plasma stability assay, mouse plasma. In kind it is in vitro ADME. The note with it: 37° C. As to the method: (§1) The plasma stability assay was performed in triplicate by incubating a compound in normal mouse and human plasma at 37° C. At 0, 1, 3, 6, and 24 h, aliquots of the plasma mixture were taken and quenched with 3 volumes of acetonitrile containing an appropriate internal standard. The samples were then vortexed and centrifuged at 14,000 rpm for 5 min. The supernatants were collected and analyzed by LC-MS/MS to determine the remaining percentage at various time points.
(§2) Quantification and analysis of compounds in biological samples were carried out on an AB Sciex QTrap 5500 mass spectrometer coupled with an Agilent 1260 Infinity HPLC. The chromatographic separation of compounds was achieved using a Phenomenex Kinetex C18 column (50×2.1 mm, 2.6 μm), and MS/MS analysis was conducted using an ESI ion source with MRM detection. The MS/MS detection parameters including declustering potential (DP), entrance potential (EP), collision energy (CE), and collision cell exit potential (CXP) were optimized for each compound.

The nature of data set [4]: Plasma stability assay, human plasma. In kind it is in vitro ADME. The note with it: 37° C. As to the method:
as §1, §2

Data set [5] can be described thus: Microsomal stability assay, mouse liver microsomes. The data set is classed as in vitro ADME. Particulars: pH 7.4; mouse liver microsomes 0.5 mg/mL, 1 mM NADPH, 1 μM compound; read-out: Microsomal Stability t1/2 Mouse. The protocol:
(§3) The in vitro microsomal stability assay was conducted in triplicate in mouse and human liver microsomal systems. In a typical incubation, a compound (typically 1 μM final concentration) was spiked into the reaction mixture containing 0.5 mg/mL of liver microsomal protein and 1 mM of NADPH in 0.1 M potassium phosphate buffer (pH 7.4) at 37° C. At various time points, 1 volume of reaction aliquot was taken and quenched with 3 volumes of acetonitrile with an appropriate internal standard. The samples were then vortexed and centrifuged at 14,000 rpm for 5 min. The supernatants were collected and analyzed by LC-MS/MS to determine the in vitro metabolic half-life (t1/2) and intrinsic clearance (CLint). Verapamil was used as a positive control.
as §2
In general terms: Liver microsomes are vesicles of endoplasmic reticulum, rich in cytochrome P450 enzymes.

Data set [6] is described as follows: Microsomal stability assay, human liver microsomes. The data set is classed as in vitro ADME. The note with it: pH 7.4; human liver microsomes 0.5 mg/mL, 1 mM NADPH, 1 μM compound; read-out: Microsomal Stability t1/2 Human. The protocol:
as §3, §2

Data set [7] can be described thus: Thermodynamic solubility assay. The data set is classed as physicochemical. The note with it: aqueous buffer, thermodynamic from solid, DPBS pH=7.4, 48 h, ambient temperature. As to the method: Briefly, a saturated solution was made by adding DPBS to the solid compound. The mixture was shaken at 200 rpm for 48 h in a MaxQ 6000 orbital shaker at ambient temperature to allow equilibrium between the solid and dissolved compound. The suspension was then filtered through a 0.45 μm PVDF syringe filter and the filtrate was collected for analysis using UV spectrometry (SpectraMax M5e, Molecular Devices) at λ=240 nm.

Data set [8] in a line: Caco-2 permeability assay. The data set is classed as in vitro ADME. The note with it: human, pH 7.4; for Papp A→B at 80 min: apical to basolateral; for Papp B→A at 80 min: basolateral to apical. As to the method:
Cell Culture. The human colon adenocarcinoma cell line Caco-2 was purchased from ATCC (American Type Culture Collection, Manassas, Va.), and was cultured in a humidified atmosphere of 5% CO2 at 37° C. Caco-2 cells were cultured in DMEM with 10% FBS, 1% NEAA, 1% GlutaMax and 1% penicillin and streptomycin solution. The culture medium was changed every other day during cell growth and differentiation. On achieving 80-90% confluence, the cells were rinsed with pre-warm DPBS (pH 7.4) and split using trypsin. The cells were then seeded on membranes of Millipore Millicell-24 cell culture device. The transepithelial electrical resistance (TEER) were assessed to reflect membrane integrity using a Millicells® ERS-2 (Millipore, USA). The Caco-2 cell monolayers were used for transport experiments on day 21 post-seeding with TEER values >500 Ω·cm2. Bidirectional Transport Experiments. Before the transport experiments, the cell monolayer was washed three times with HBSS. Then, the plates were incubated in fresh permeability assay buffer (HBSS containing 10 mM glucose and 20 mM HEPES, pH 7.4) at 37° C. The experiments were conducted by spiking test compounds to either the apical (AP, 0.4 mL) or basolateral side (BL, 0.8 mL), while the receiving chamber contained the corresponding volume of pre-warmed permeability assay buffer. Every experiment was repeated in duplicate, and the plates were incubated in an orbital shaker at 37° C., 50 rpm/min. To assess the drug transport, at the incubation time of 20, 40, 60 and 80 min, aliquot was removed and was immediately replenished with an equal volume of permeability assay buffer. The samples were then subjected to LC/MS/MS analysis. The apparent permeability coefficient was indicated by the absorption rate constant Papp. It could be calculated as PBA (measured in BL to AP direction) or PAB (measured in AP to BL direction), using the equation of Papp=(dQ/dt)/(A×C0). dQ/dt is the rate at which the compound appears in the receiver chamber (nmol/s), A is the surface area of the filter membrane (0.7 cm2) and C0 is the initial concentration in the donor chamber (μM). Efflux ratio (ER) was calculated by the equation of ER=PBA/PAB, where PBA is the Papp value measured in BL to AP direction, and PAB is the Papp value measured in AP to BL direction.
In general terms: Caco-2 monolayers are a common model of the intestinal barrier.

In general, EC50 refers to the concentration at which the effect is half-maximal. A low value points to greater potency. By solubility is commonly meant the dissolved amount per volume that the medium holds. A low value points to little dissolved substance. By Papp A→B is commonly meant the apparent permeability from the apical to the basolateral side of a cell layer. The low end stands for slow passage, the high end for fast passage. Broadly, the Papp B→A is the apparent permeability from the basolateral to the apical side of a cell layer. In the case of `CNC(=O)c1cccc(Cn2nc(C)c(NC(=O)c3ccc(COc4ccc(C(F)(F)F)cc4C)cc3)c2C)c1` [Compound D10, 3-((3,5-Dimethyl-4-(4-((2-methyl-4-(trifluoromethyl)phenoxy)-methyl)benzamido)-1H-pyrazol-1-yl)methyl)-N-methylbenzamide], the EC50 was found to be 0.62 µM in data set [1] and 4.8 µM in data set [2]. In addition, the “Plasma Stability (% remaining, 6 h/24 h) Mouse” value in data set [3] (6 h) was 88%; in data set [3] (24 h) it was 93%. For the same molecule, the “Plasma Stability (% remaining, 6 h/24 h) Human” value came out at 98% in data set [4] (6 h) and 100% in data set [4] (24 h). In addition, the half-life at 1 μM in data set [5] and in data set [6] was 53 min in each case. Moreover, in data set [7], the solubility at 48 h was 166 ± 2 µM (≈ 91.4 µg/mL). This molecule had a Papp A→B at 80 min in data set [8] of 3.72 ×10⁻⁶ cm/s. Also, the Papp B→A at 80 min in data set [8] is 11.2 ×10⁻⁶ cm/s.
As to `CC(=O)Nc1cccc(Cn2nc(C)c(NC(=O)c3ccc(COc4ccc(C(F)(F)F)cc4)cc3)c2C)c1` [Compound D11, N-(1-(3-Acetamidobenzyl)-3,5-dimethyl-1H-pyrazol-4-yl)-4-((4-(trifluoromethyl)phenoxy)methyl)benzamide], the results for the EC50 in data set [1] and in data set [2] were 0.87 µM and 8.6 µM, respectively. Besides, the “Plasma Stability (% remaining, 6 h/24 h) Mouse” value is 2.1% in data set [3] (6 h) and 0.1% in data set [3] (24 h). Further, the entries for the “Plasma Stability (% remaining, 6 h/24 h) Human” value in data set [4] (6 h) and in data set [4] (24 h) were 96% and 94%, respectively. For the same molecule, the half-life at 1 μM in data set [5] was determined as 7.4 min; in data set [6], 8.3 min.
`CC(=O)Nc1cccc(Cn2nc(C)c(NC(=O)c3ccc(COc4ccc(C(F)(F)F)cc4C)cc3)c2C)c1` [Compound D12, N-(1-(3-Acetamidobenzyl)-3,5-dimethyl-1H-pyrazol-4-yl)-4-((2-methyl-4-(trifluoromethyl)phenoxy)methyl)benzamide]: the EC50 in data set [1] came to 1.1 µM; in data set [2], 6.6 µM. Further, the “Plasma Stability (% remaining, 6 h/24 h) Mouse” value in data set [3] (6 h) is listed as 1.6%; in data set [3] (24 h), 0.1%. In addition, the “Plasma Stability (% remaining, 6 h/24 h) Human” value was 92% in data set [4] (6 h) and 95% in data set [4] (24 h). For the same molecule, the figures for the half-life at 1 μM in data set [5] and in data set [6] were 9.7 min and 14 min, respectively.
For the molecule `CNC(=O)c1cccc(Cn2nc(C)c(NC(=O)c3ccc(COc4ccc(C(F)(F)F)cc4)cc3)c2C)n1` [Compound E1a, 6-((3,5-Dimethyl-4-(4-((4-(trifluoromethyl)phenoxy)methyl)-benzamido)-1H-pyrazol-1-yl)methyl)-N-methylpicolinamide], the EC50 in data set [1] is 0.48 µM; in data set [2], 7.8 µM. The “Plasma Stability (% remaining, 6 h/24 h) Mouse” value in data set [3] (24 h) is “—/99%”. Further, the “Plasma Stability (% remaining, 6 h/24 h) Human” value in data set [4] (24 h) is listed as “—/100%”. The half-life at 1 μM in data set [5] was 65 min; in data set [6], 47 min. The molecule further registered a Papp A→B at 80 min in data set [8] of 24.5 ×10⁻⁶ cm/s. In data set [8], this molecule had a Papp B→A at 80 min of 21 ×10⁻⁶ cm/s.
`CNC(=O)c1cccc(Cn2nc(C)c(NC(=O)c3ccc(COc4ccc(C(F)(F)F)cc4C)cc3)c2C)n1` [Compound E1b, 6-((3,5-Dimethyl-4-(4-((2-methyl-4-(trifluoromethyl)phenoxy)methyl)benzamido)-1H-pyrazol-1-yl)methyl)-N-methylpicolinamide] registered an EC50 in data set [1] of 6.3 µM. In addition, the “Plasma Stability (% remaining, 6 h/24 h) Mouse” value in data set [3] (24 h) was “—/96%”. For the same molecule, the “Plasma Stability (% remaining, 6 h/24 h) Human” value in data set [4] (24 h) is listed as “—/100%”. In data set [5], the half-life at 1 μM stood at 75 min. In data set [6], the half-life at 1 μM was found to be 47 min. For the same molecule, in data set [8], the Papp A→B at 80 min turned out to be 3.58 ×10⁻⁶ cm/s and the Papp B→A at 80 min amounted to 7.17 ×10⁻⁶ cm/s.
In the case of `CNC(=O)c1cc(Cn2nc(C)c(NC(=O)c3ccc(COc4ccc(C(F)(F)F)cc4)cc3)c2C)ccn1` [Compound E2a, 4-((3,5-Dimethyl-4-(4-((4-(trifluoromethyl)phenoxy)methyl)benzamido)-1H-pyrazol-1-yl)methyl)-N-methylpicolinamide], the EC50 in data set [1] turned out to be 0.85 µM; in data set [2], 8.3 µM. The “Plasma Stability (% remaining, 6 h/24 h) Mouse” value in data set [3] (24 h) is recorded as “—/91%”. The “Plasma Stability (% remaining, 6 h/24 h) Human” value in data set [4] (24 h) was “—/98%”. The half-life at 1 μM in data set [5] amounted to 64 min; in data set [6], 112 min. This molecule also had a Papp A→B at 80 min in data set [8] of 5.02 ×10⁻⁶ cm/s. Further, the Papp B→A at 80 min in data set [8] amounted to 5.69 ×10⁻⁶ cm/s.
For the molecule `CNC(=O)c1ccnc(Cn2nc(C)c(NC(=O)c3ccc(COc4ccc(C(F)(F)F)cc4)cc3)c2C)c1` [Compound E4a, 2-((3,5-Dimethyl-4-(4-((4-(trifluoromethyl)phenoxy)methyl)benzamido)-1H-pyrazol-1-yl)methyl)-N-methylisonicotinamide], the EC50 in data set [1] turned out to be 13 µM. Moreover, the “Plasma Stability (% remaining, 6 h/24 h) Mouse” value in data set [3] (24 h) was “—/98%”. For the same molecule, in data set [4] (24 h), the “Plasma Stability (% remaining, 6 h/24 h) Human” value is reported as “—/97%”. The figures for the half-life at 1 μM in data set [5] and in data set [6] were 151 min and 65 min, respectively.
For `CNC(=O)c1ccnc(Cn2nc(C)c(NC(=O)c3ccc(COc4ccc(C(F)(F)F)cc4C)cc3)c2C)c1` [Compound E4b, 2-((3,5-Dimethyl-4-(4-((2-methyl-4-(trifluoromethyl)phenoxy)methyl)benzamido)-1H-pyrazol-1-yl)methyl)-N-methylisonicotinamide] the same measures were 4.9 µM, “—/99%”, “—/98%”, 126 min and 57 min.
